{"source": "patent US20130296230A1", "about": "“METHOD FOR TREATING MALARIA, METHOD FOR KILLING MALARIA PARASITE, AND USE OF THE METHODS” (RIKEN, priority 2010, published 2013)", "key": {"[1]": {"test_system": "falciparum malaria parasites (P. falciparum)", "assay": "Intracellular fluorescence Ca2+ imaging of P. falciparum in intraerythrocytic stage", "type": "cell-based", "description": "Next, 1 ml of the culture of the erythrocytes that had been thus diluted was collected by centrifugation (at 1,000 g for five minutes at room temperature), then resuspended in 350 μL BSA(−) culture medium constituted by the same constituents as the BSA(−) culture medium mentioned above (hereinafter referred to as “erythrocyte resuspension (1)”).\nErythrocytes were then washed once with 10 mL BSA(−) culture medium (1000 g for 5 minutes at room temperature) and resuspended in 600 μL BSA(+) culture medium (the BSA(−) culture medium supplemented with 0.5 weight % Albumax 1 and 25 μg/mL gentamicin (Sigma)) (hereinafter referred to as “erythrocyte resuspension (2)”). Next, 100 μL of the erythrocyte resuspension (2) was inoculated in a 35 mm glass-bottomed dish (MatTek Corp.) coated with 0.1 mg/ml poly-L-lysine. After 30 minutes of incubation in an O2/CO2 incubator, suspended erythrocytes were gently washed with BSA(+) culture medium before collecting.\nThe glass-bottomed dish was then placed in a culture chamber in which an O2 level, a CO2 level, temperature, and humidity were maintained under conditions (O2 level: 5%, CO2 level, 5%, temperature: 37° C.) used for conventional in vitro culturing of malaria parasites.\nThe acquisition of the transparent images and acquisition of light emissions were carried out by the true spectral detection method developed by Leica Microsystems. The imaging was carried out at intervals of every 5 to 15 seconds for duration of 300 to 600 seconds. A fluorescence intensity of fluo4-AM was calculated by subtraction of background fluorescence (F) and normalized to minimum fluorescence during the imaging period (Fmin)."}, "[2]": {"test_system": "falciparum malaria parasite FCR-3 strain", "assay": "Assay for examining inhibition of development of P. falciparum (synchronized culture, Giemsa smear parasitaemia count)", "type": "cell-based", "description": "An FCR-3 strain of falciparum malaria parasite (P. falciparum) (reference document: Hatabu T, Takada T, Taguchi N, Suzuki M, Sato K, Kano S. (2005) Antimicrob Agents Chemother. 2005 February; 49(2):493-6.) was cultured in RPMI culture medium (Invitrogen/GIBCO) in accordance with the method of Trager and Jensen (reference document: Trager, W. 86 Jensen, J. B. (1976) Science 193, 673-675.). The FCR-3 strain is a strain which takes an approximately 40 hours to undergo one development/proliferation cycle of invasion of merozoites into erythrocytes, formation of ring forms, formation of trophozoites, formation of schizonts, release of mature merozoites, and invasion of the mature merozoites into erythrocytes. To the RPMI culture medium, 0.5 weight % AlubumaxI (Invitrogen), 25 mM HEPES, 24 mM sodium hydrogen carbonate, 0.5 g/L L-glutamine, 50 mg/L hypoxanthine, 25 μg/ml gentamicin (Sigma), and human erythrocytes with 5% hematocrit (provided by a healthy volunteer) were added. Further, synchronized culturing was carried out with the use of 5 weight % d-sorbitol (reference document: Lambros, C. 86 Vanderberg, J. P. (1979) J. Parasitol. 65, 418-420.) to synchronize developments of P. falciparum.\nEffects of 2-APB (2-aminoethyl diphenylborinate) and LZ (luzindole) on intraerythrocytic falciparum malaria parasite development were examined with the use of a culture of falciparum malaria parasites in a ring form stage with initial parasitaemia of approximately 1%.\nFirst, 500 μl of the culture was injected into each well of a tissue culture plate (24-well flat-bottom plate, Corning). 2-APB and LZ were dissolved in dimethyl sulfoxide (DMSO, HYBRI-MAX (Registered Trademark), Sigma) to be 10 mM and 100 mM in concentration, respectively. In this way, stock solutions of these compounds were prepared. The stock solutions were diluted with the RPMI culture medium, and were added to each well of the tissue culture plate in an amount to be a predetermined final concentration in the well. Further, DMSO was diluted with the PPMI culture medium and was added to each well of a tissue culture plate in an amount to be a predetermined final concentration in the well, and was used as a control. Culturing was carried out in each well for a predetermined period of time.\nAfter elapse of the predetermined period of time, a drop of the erythrocytes-containing culture in each well of the tissue culture plate was smeared on a glass slide and giemsa-stained. The number of erythrocytes infected with falciparum malaria parasites out of 2000 erythrocytes was counted so as to determine parasitaemia."}, "[3]": {"test_system": "chloroquine-resistant strain K1 of falciparum malaria parasites (P. falciparum)", "description": "(§1) An effect of 2-APB on intraerythrocytic development of a chloroquine-resistant strain K1 of falciparum malaria parasites (P. falciparum) was examined by synchronized culturing malaria parasites in ring forms with initial parasitaemia of approximately 2%. The culturing was terminated at 24 hours, 48 hours, and 72 hours from the start of the synchronized culturing, and thin smears of erythrocytes were prepared for falciparum malaria parasite counting. Culture medium with 100 μM DMSO or 100 μM 2-APB was replaced at 24 hours and 48 hours from the start of the synchronized culturing. […] Parasitaemia of ring forms (Rf), trophozoites (T), early schizonts (ES) and late schizonts (LS) is shown as mean±S.D. of 3 wells. Stages with parasitaemia of less than 0.1% are not shown."}, "[4]": {"test_system": "falciparum malaria parasite FCR-3 strain", "description": "(§2) Giemsa-stained smears were observed by Nikon Eclipse 80i microscope (Nikon), photographed by Nikon DXM 1200F camera (Nikon) and uploaded on a personal computer by digital photograph manager software (ACT-1; Nikon). In order to measure falciparum malaria parasite size, 50 falciparum malaria parasites were randomly selected, and areas containing these falciparum malaria parasites were manually delineated with lines on a screen. Area, perimeter, and maximum diameter of the falciparum malaria parasites cells was calculated by WinROOF software package Ver.5.8.1 (Mitani, Japan).\nIn order to quantitatively examine the effect of 2-APB on intraerythrocytic falciparum malaria parasite development, the area, perimeter and maximum diameter (hereinafter referred to collectively as “three parameters”) of falciparum malaria parasite cells were analyzed at 15 hours, 30 hours, and 40 hours from the start of the synchronized culturing. At 40 hours from the start of the synchronized culturing, only schizonts were analyzed.\nIn order to investigate an effect of 2-APB in the ring form stage, 100 μM 2-APB was added to falciparum malaria parasites that were being synchronized-cultured, and sizes of the falciparum malaria parasites were measured after 10 hours of culturing and after 20 hours of culturing. In some assays (“removed at 10 h” in (f) of FIG. 6), 100 μM 2-APB was added at start of the culturing and removed after 10 hours of culturing, and then sizes of falciparum malaria parasites were measured after 20 hours of culturing (see (f) of FIG. 6). […] Fifty falciparum malaria parasites were measured in each experimental group. P values compared with the controls (in the presence of DMSO) are given in each panel (two-tailed unpaired t test with Welch's correction)."}, "[5]": {"test_system": "chloroquine-resistant strain K1 of falciparum malaria parasites", "conditions": "100 μM 2-APB; 24 hours", "description": "as §2, §1"}, "[6]": {"test_system": "falciparum malaria parasites", "description": "Specimens to be subjected to the electron microscopy were fixed for approximately 2 hours in 2.5% (V/V) glutaraldehyde buffered with 0.1 M phosphate buffer (pH 7.4, at 4° C.). The specimens were then post-fixed in 1% (w/V) osmium tetroxide for 1 hour."}, "[7]": {"test_system": "falciparum malaria parasites", "conditions": "cultured 30 hours in presence of 2-APB", "description": "ER-Tracker Red (Invitrogen). […] ER-Tracker Red was then added to the erythrocyte suspension so as to be 0.5 μM in final concentration, and the mixture was shaken at 200 rpm for 30 minutes at 37° C."}, "malaria parasites": {"test_system": "malaria parasites", "conditions": "cited from earlier work"}}, "note": "Where two headings read alike, the source gives them in different places."}
{"smiles": "C/C=C/[C@H]1O[C@@](O)([C@@H](C)[C@H](O)[C@H](C)[C@H]2OC(=O)/C(OC)=C/C(C)=C/[C@@H](C)[C@@H](O)[C@@H](CC)[C@@H](O)[C@H](C)C/C(C)=C/C=C/[C@@H]2OC)C[C@@H](O[C@H]2C[C@@H](O)[C@H](OC(N)=O)[C@@H](C)O2)[C@@H]1C", "note": "[CMA, concanamycin A]", "values": [{"measurement": "Ca2+ oscillations", "setting": "[1]; pre-treatment with 100 nM CMA, early ring forms and trophozoites", "result": "no effect"}]}
{"smiles": "NCCOB(c1ccccc1)c1ccccc1", "note": "[2-APB, 2-aminoethyl diphenylborinate]", "values": [{"measurement": "Spontaneous Ca2+ oscillations", "setting": "[1]; 100 μM 2-APB, early ring form and trophozoite stages", "result": "almost completely blocked"}, {"measurement": "Ca2+ fluctuations", "setting": "[1]; 100 μM 2-APB, late ring form, schizont and merozoite stages", "result": "no notable effect"}, {"measurement": "Amplitude of periodic Ca2+ fluctuations (mean max minus mean min F/Fmin)", "setting": "[1]; 2-APB, late ring form, schizont, merozoite stages, quantitative analysis", "result": "statistically significant effect of 2-APB was observed only in the merozoite stage"}, {"measurement": "Intraerythrocytic development of falciparum malaria parasites", "setting": "[2]; 100 μM 2-APB vs DMSO controls, 20, 30, 40 hours of synchronized culturing", "result": "clearly delayed"}, {"measurement": "Ring form parasitaemia at 45 hours", "setting": "[2]; 2-APB added at late schizont stage (28 hours)", "result": "significantly decreased"}, {"measurement": "Parasitaemia of ring forms at 40 hours", "setting": "[2]; 2-APB added between trophozoite and early schizont stages (21 hours), compared with the removal cases", "result": "greater effect"}, {"measurement": "Number of merozoites formed in each schizont", "setting": "[2]; 2-APB vs DMSO, 40 hours", "result": "significantly smaller"}, {"measurement": "Erythrocyte parasitaemia", "setting": "[2]; 2-APB, medium replaced at 40 h, 70 hours from start of synchronized culturing", "result": "substantially zero"}, {"measurement": "Developmental stage reached", "setting": "[2]; 2-APB, 20 hours from start of synchronized culturing", "result": "remained at the trophozoite stage"}, {"measurement": "Parasite morphology", "setting": "[2]; cultured in presence of 2-APB, up to 40 hours", "result": "abnormal morphology"}, {"measurement": "Parasite development in 2-APB-pretreated erythrocytes", "setting": "[2]; erythrocytes treated with 2-APB only in advance, 20 and 40 hours", "result": "could develop normally"}, {"measurement": "Parasitaemia of trophozoites", "setting": "[3]; 100 μM 2-APB, 24 hours", "result": "tendency towards decreasing parasitaemia"}, {"measurement": "Intraerythrocytic malaria parasite development", "setting": "[3]; 2-APB vs DMSO, 48 hours", "result": "delayed"}, {"measurement": "Number of erythrocytes infected with falciparum malaria parasite", "setting": "[3]; 2-APB vs DMSO, 72 hours", "result": "much lesser"}, {"measurement": "Effect of 2-APB on the K-1 strain", "setting": "[3]; 24 hour from start of assay", "result": "relatively weak"}, {"measurement": "Area, perimeter and maximum diameter of parasite cells", "setting": "[4]; 100 μM 2-APB present for 10 hours and 20 hours vs DMSO", "result": "significantly smaller"}, {"measurement": "Area, perimeter and maximum diameter of parasite cells", "setting": "[4]; 100 μM 2-APB removed at 10 hours, measured at 20 hours vs DMSO", "result": "no statistically significant difference"}, {"measurement": "Area, perimeter and maximum diameter of parasite cells", "setting": "[4]; 100 μM 2-APB vs DMSO, 15, 30 and 40 hours", "result": "significant decreases"}, {"measurement": "Inhibitory effect by area, perimeter and maximum diameter of parasite cells", "setting": "[5]", "result": "confirmed"}, {"measurement": "Ultrafine structure (electron micrographs)", "setting": "[6]; 100 μM 2-APB, 30 hours", "result": "highly dense chromatin masses in the nucleus and highly dense degeneration"}, {"measurement": "Nuclear envelope and endoplasmic reticulum in electron micrographs", "setting": "[6]; cultured in presence of 2-APB", "result": "dilated nuclear envelope and endoplasmic reticulum"}, {"measurement": "Endoplasmic reticulum tracker signals", "setting": "[7]", "result": "became broad and extended to the cytosol"}, {"measurement": "Increase in concentration of calcium ion in cytoplasm brought about by melatonin", "setting": "malaria parasites; 2-APB administered to malaria parasites", "result": "suppressed"}, {"measurement": "Promotion of calcium discharge by 2-APB itself", "setting": "malaria parasites; malaria parasites", "result": "no effect"}]}
{"smiles": "C/C=C(/C)C(=O)O[C@H]1C(C)=C2[C@H]([C@@H]1OC(=O)CCCCCCC)[C@@](C)(OC(C)=O)C[C@H](OC(=O)CCC)[C@@]1(O)[C@H]2OC(=O)[C@@]1(C)O", "note": "[Tg, thapsigargin]", "values": [{"measurement": "Ca2+ oscillations", "setting": "[1]; pre-treatment with 2 μM Tg for 30 minutes, early ring forms and trophozoites", "result": "blocked"}]}
{"smiles": "COc1ccc2c(c1)CC[C@@H]1[C@@H]2CC[C@]2(C)[C@@H](NCCCCCCN3C(=O)C=CC3=O)CC[C@@H]12", "note": "[U73122]", "values": [{"measurement": "Ca2+ oscillations", "setting": "[1]; 5 minutes pre-treatment with 10 μM U73122, early ring form and trophozoite stages", "result": "almost completely blocked"}]}
{"smiles": "CC(=O)NCCc1c(Cc2ccccc2)[nH]c2ccccc12", "note": "[LZ, luzindole]", "values": [{"measurement": "Intraerythrocytic falciparum malaria parasite development", "setting": "[2]; 250 μM LZ, 20, 40, 70 hours", "result": "clearly inhibited"}, {"measurement": "Developmental stage reached", "setting": "[2]; 250 μM LZ, 20 hours", "result": "remained in a transition stage from ring forms to early trophozoites"}, {"measurement": "Developmental stage reached", "setting": "[2]; 250 μM LZ, 40 hours", "result": "most of the falciparum malaria parasites remained in the transition stage from ring forms to early trophozoites"}, {"measurement": "Developmental stage reached", "setting": "[2]; 250 μM LZ, 70 hours", "result": "remained in the transition stage from ring forms to early trophozoites even at 70 hours"}]}
